According to PubChem BioAssay (NCI):
“And” between values parts separate entries of the source, which are not always exact repeats. Equal values may be shown once.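 96-well plates; 48 h exposure; 5 concentrations. Endpoints by linear interpolation between flanking doses. Not reached: highest tested concentration assigned. Here, GI50 denotes the concentration required for 50% inhibition of growth. TGI: total growth inhibition.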

Legend:
Assay in all cases: NCI-60 cell line screen, 48 h
DU-145 prostate = test system: DU-145 prostate
K-562 leukemia = test system: K-562 leukemia
SF-268 CNS = test system: SF-268 CNS
LOX IMVI melanoma = test system: LOX IMVI melanoma
SNB-19 CNS = test system: SNB-19 CNS
ACHN renal = test system: ACHN renal
LXFL 529 NSCLC = test system: LXFL 529 NSCLC
786-0 renal = test system: 786-0 renal
DMS 114 small cell lung = test system: DMS 114 small cell lung
RXF 393 renal = test system: RXF 393 renal

Structure (SMILES): O=[N+]([O-])c1ccc(C2=Nn3c(nnc3-c3ccc(Cl)cc3)SC2)o1
- TGI (DU-145 prostate): 39.6 µM
- TGI (K-562 leukemia): 4.89 µM
- TGI (SF-268 CNS): 30.2 µM
- TGI (LOX IMVI melanoma): 12.2 µM
- TGI (SNB-19 CNS): 29.9 µM
- TGI (ACHN renal): 27.3 µM
- TGI (LXFL 529 NSCLC): 14.1 µM
- TGI (786-0 renal): 23 µM
- TGI (DMS 114 small cell lung): 12.4 µM
- TGI (RXF 393 renal): 21.6 µM

Structure (SMILES): CCC(O)C1Cc2c(C)cc3c(c2O1)C(=O)c1ccccc1C3=O (centres undefined)
- TGI (K-562 leukemia): > 100 µM
- TGI (SF-268 CNS): > 100 µM
- TGI (LOX IMVI melanoma): 93.7 µM
- TGI (SNB-19 CNS): > 100 µM
- TGI (ACHN renal): > 100 µM
- TGI (LXFL 529 NSCLC): > 100 µM
- TGI (786-0 renal): 62.7 µM
- TGI (DMS 114 small cell lung): 97.7 µM

Structure (SMILES): CCCCNC(=O)C1C(=O)N(CCCC)C(=O)/C1=N\N (centres undefined)
- TGI (K-562 leukemia): > 100 µM
- TGI (SF-268 CNS): > 100 µM
- TGI (LOX IMVI melanoma): > 100 µM
- TGI (SNB-19 CNS): > 100 µM
- TGI (ACHN renal): > 100 µM
- TGI (LXFL 529 NSCLC): > 100 µM
- TGI (786-0 renal): > 100 µM
- TGI (DMS 114 small cell lung): > 100 µM
- TGI (RXF 393 renal): > 100 µM

Structure (SMILES): CC1=CCCC2C1(C)CCC(C)C2(C)Cc1cc(O)ccc1O (centres undefined)
- TGI (DU-145 prostate): 30.4 µM
- GI50 (K-562 leukemia): 5.44 µM
- TGI (K-562 leukemia): 40.8 µM and 19.9 µM
- GI50 (SF-268 CNS): 5.4 µM
- TGI (SF-268 CNS): 21.1 µM and 20.7 µM
- GI50 (LOX IMVI melanoma): 3.6 µM
- TGI (LOX IMVI melanoma): 16.2 µM and 16.3 µM
- GI50 (SNB-19 CNS): 11.5 µM
- TGI (SNB-19 CNS): 27.3 µM and 18.5 µM
- TGI (ACHN renal): 25.6 µM
- TGI (786-0 renal): 20.3 µM
- TGI (DMS 114 small cell lung): 13.3 µM
- GI50 (RXF 393 renal): 3.74 µM
- TGI (RXF 393 renal): 20.4 µM and 10.9 µM

Structure (SMILES): COC(=O)c1ccccc1N1C(=O)Cc2ccccc2C1=O
- TGI (K-562 leukemia): > 100 µM
- TGI (SF-268 CNS): > 100 µM
- TGI (SNB-19 CNS): > 100 µM
- TGI (ACHN renal): > 100 µM
- TGI (LXFL 529 NSCLC): > 100 µM
- TGI (786-0 renal): > 100 µM
- TGI (DMS 114 small cell lung): > 100 µM
- TGI (RXF 393 renal): > 100 µM

Structure (SMILES): CCOC(=O)NC/C=C/COC1CCCCO1 (centres undefined)
- TGI (K-562 leukemia): > 100 µM
- TGI (SF-268 CNS): > 100 µM
- TGI (SNB-19 CNS): > 100 µM
- TGI (ACHN renal): > 100 µM
- TGI (LXFL 529 NSCLC): > 100 µM
- TGI (786-0 renal): > 100 µM
- TGI (DMS 114 small cell lung): > 100 µM
- TGI (RXF 393 renal): > 100 µM

Structure (SMILES): N#CCCCCCOCCOCCOCCOCCOCCCCCC#N
- TGI (K-562 leukemia): > 100 µM
- TGI (SF-268 CNS): > 100 µM
- TGI (LOX IMVI melanoma): > 100 µM
- TGI (SNB-19 CNS): > 100 µM
- TGI (ACHN renal): > 100 µM
- TGI (LXFL 529 NSCLC): > 100 µM
- TGI (786-0 renal): > 100 µM
- TGI (DMS 114 small cell lung): > 100 µM
- TGI (RXF 393 renal): > 100 µM

Structure (SMILES): CCCNCC(=O)O[C@]1(CC)C(=O)OCc2c1cc1n(c2=O)Cc2cc3ccccc3nc2-1
- TGI (K-562 leukemia): > 100 µM
- TGI (SF-268 CNS): 2.46 µM
- TGI (LOX IMVI melanoma): 0.662 µM
- TGI (SNB-19 CNS): > 100 µM
- TGI (ACHN renal): 0.233 µM
- TGI (LXFL 529 NSCLC): 67.6 µM
- TGI (786-0 renal): 0.117 µM
- TGI (DMS 114 small cell lung): 0.941 µM
- TGI (RXF 393 renal): 0.39 µM

Structure (SMILES): O=C(NCc1cccnc1)C1COc2cc(-c3cc(=O)c4ccccc4o3)ccc2O1 (centres undefined)
- TGI (K-562 leukemia): > 100 µM
- TGI (SF-268 CNS): > 55.2 µM
- TGI (LOX IMVI melanoma): > 63.1 µM
- TGI (SNB-19 CNS): > 67.2 µM
- TGI (ACHN renal): > 72.9 µM
- TGI (LXFL 529 NSCLC): > 100 µM
- TGI (786-0 renal): > 81.7 µM
- TGI (DMS 114 small cell lung): > 79.5 µM
- TGI (RXF 393 renal): > 61.2 µM

Structure (SMILES): O=C(OC1CCC2OOC1O2)c1ccc([N+](=O)[O-])cc1 (centres undefined)
- TGI (K-562 leukemia): > 100 µM
- TGI (SF-268 CNS): > 100 µM
- TGI (LOX IMVI melanoma): > 100 µM
- TGI (SNB-19 CNS): > 100 µM
- TGI (ACHN renal): > 100 µM
- TGI (786-0 renal): > 100 µM
- TGI (DMS 114 small cell lung): > 100 µM
- TGI (RXF 393 renal): > 100 µM

Structure (SMILES): O=C1NC2C(=CC(O)C(O)C2O)c2cc3c(cc21)OCO3 (centres undefined)
- TGI (DU-145 prostate): 1.83 µM
- GI50 (K-562 leukemia): 0.294 µM and 0.149 µM
- TGI (K-562 leukemia): 3.64 µM and 7.68 µM
- GI50 (SF-268 CNS): 0.354 µM and 0.337 µM
- TGI (SF-268 CNS): 3.37 µM and 3.58 µM
- GI50 (LOX IMVI melanoma): 0.115 µM
- TGI (LOX IMVI melanoma): 0.67 µM and 1.53 µM
- GI50 (SNB-19 CNS): 0.296 µM and 0.111 µM
- TGI (SNB-19 CNS): 0.832 µM and 2.12 µM
- GI50 (ACHN renal): 0.334 µM
- TGI (ACHN renal): 1.57 µM
- GI50 (LXFL 529 NSCLC): 0.313 µM
- TGI (LXFL 529 NSCLC): 3.66 µM
- GI50 (786-0 renal): 0.544 µM
- TGI (786-0 renal): 4.93 µM
- GI50 (DMS 114 small cell lung): 0.335 µM and 0.321 µM
- TGI (DMS 114 small cell lung): 3.84 µM and 2.17 µM
- GI50 (RXF 393 renal): 0.589 µM
- TGI (RXF 393 renal): 0.805 µM and 1.43 µM and 2.16 µM

Structure (SMILES): Nc1nc(Cl)cc(NCC(O)CO)n1 (centres undefined)
- TGI (K-562 leukemia): > 100 µM
- TGI (SF-268 CNS): > 100 µM
- TGI (LOX IMVI melanoma): > 100 µM
- TGI (SNB-19 CNS): > 100 µM
- TGI (LXFL 529 NSCLC): > 100 µM
- TGI (786-0 renal): > 100 µM
- TGI (DMS 114 small cell lung): > 100 µM
- TGI (RXF 393 renal): > 100 µM

Structure (SMILES): CCOC(=O)C(N=C(c1ccccc1)c1ccccc1)N(C(=O)OC(C)(C)C)C(=O)OC(C)(C)C (centres undefined)
- TGI (K-562 leukemia): > 100 µM
- TGI (SF-268 CNS): > 100 µM
- TGI (SNB-19 CNS): > 100 µM
- TGI (ACHN renal): > 100 µM
- TGI (LXFL 529 NSCLC): > 100 µM
- TGI (786-0 renal): > 100 µM
- TGI (DMS 114 small cell lung): > 100 µM
- TGI (RXF 393 renal): > 100 µM

Structure (SMILES): COc1cc2c(cc1OC)CC(=O)Nc1cc(OC)c(OC)cc1CC2
- TGI (K-562 leukemia): > 100 µM
- TGI (SF-268 CNS): > 100 µM
- TGI (LOX IMVI melanoma): > 100 µM
- TGI (SNB-19 CNS): > 100 µM
- TGI (ACHN renal): > 100 µM
- TGI (LXFL 529 NSCLC): > 100 µM
- TGI (786-0 renal): > 100 µM
- TGI (DMS 114 small cell lung): 91.9 µM

Structure (SMILES): COc1ccc(NC(=O)CC/C(CC(=O)c2ccco2)=N/NC(N)=S)cc1
- TGI (K-562 leukemia): > 100 µM
- TGI (SF-268 CNS): > 100 µM
- TGI (LOX IMVI melanoma): > 100 µM
- TGI (SNB-19 CNS): > 100 µM
- TGI (ACHN renal): > 100 µM
- TGI (LXFL 529 NSCLC): > 100 µM
- TGI (786-0 renal): > 100 µM
- TGI (DMS 114 small cell lung): > 100 µM

Structure (SMILES): CC[C@@]1(O)C(=O)OCc2c1cc1n(c2=O)Cc2cc3cccc([N+](=O)[O-])c3nc2-1
- GI50 (K-562 leukemia): 3.55 µM
- TGI (K-562 leukemia): > 100 µM
- GI50 (SF-268 CNS): 0.794 µM
- TGI (SF-268 CNS): > 100 µM
- GI50 (LOX IMVI melanoma): 0.429 µM
- TGI (LOX IMVI melanoma): 6.14 µM
- GI50 (SNB-19 CNS): 0.877 µM
- TGI (SNB-19 CNS): 31.4 µM
- GI50 (ACHN renal): 0.322 µM
- TGI (ACHN renal): 3.01 µM
- GI50 (LXFL 529 NSCLC): 14.2 µM
- TGI (LXFL 529 NSCLC): > 100 µM
- GI50 (786-0 renal): 0.3 µM
- TGI (786-0 renal): 1.29 µM
- GI50 (DMS 114 small cell lung): 0.684 µM
- TGI (DMS 114 small cell lung): 38.3 µM
- GI50 (RXF 393 renal): 1.83 µM
- TGI (RXF 393 renal): 7.18 µM

Structure (SMILES): CC1(Br)CC2OC3(Br)C=CC(C)(O)C2(CC1=O)C3(C)C (centres undefined)
- TGI (K-562 leukemia): > 29.8 µM
- TGI (SF-268 CNS): > 100 µM
- TGI (LOX IMVI melanoma): > 100 µM
- TGI (SNB-19 CNS): > 100 µM
- TGI (ACHN renal): > 100 µM
- TGI (LXFL 529 NSCLC): > 100 µM
- TGI (786-0 renal): > 100 µM
- TGI (DMS 114 small cell lung): > 100 µM
